The record followed here is article PMC11858653, “Design, Synthesis and Bioactive Evaluation of Topo I/c-MYC Dual Inhibitors to Inhibit Oral Cancer via Regulating the PI3K/AKT/NF-κB Signaling Pathway” (Molecules, 2025).

In general, IC50 refers to the midpoint of a concentration-inhibition curve. The low end stands for inhibition by little substance, the high end for a need for much substance.

Entries after “also recorded” stand apart in the source; their conditions may differ.

The subject of one data set is c-MYC protein. Description: Western blot of c-MYC protein in Cal27 cells. In kind it is cell-based, human. The settings on record: Cal27, 24 h. The procedure:
(§1) After Cal27 cells had been treated with the desired concentration of each drug for 24 h, the cells were collected and the total protein was extracted. The cells were then separated on a gel of appropriate concentration and transferred to a PVDF membrane. After blocking with milk, the membrane was incubated with primary antibody at 4 °C overnight. Subsequently, the membrane was incubated with horseradish peroxidase-coupled secondary antibody for 2 h. Finally, the protein bands were used to detect the immunoreactive signal using an enhanced chemiluminescence kit.
On the technique in general: A western blot detects proteins with antibodies after separation by electrophoresis.

Data set [1] deals with LC3, p62, Beclin-1 in Cal27 cells. Description: Western blot of autophagy-related markers. In kind it is cell-based, human. As for the experimental part: In addition, in order to further clarify the potential mechanism of autophagy induced by compound 7be, Western blot analysis was used to detect the expression of autophagy-related markers, including microtubule-associated protein 1 light chain protein-3 protein (LC3), p62 and Beclin-1. In the process of autophagy, LC3 is essential for the maturation of the autophagosome and its fusion with the lysosome.
as §1

The subject of another data set is A549. Description: MTT antiproliferative assay, A549. The format is cell-based, human. The settings on record: Homo sapiens, A549, 48 h, mean ± SD.
The next data set has as its system Cal27 cells. Description: Colony formation assay. The format is cell-based, human. The settings on record: Cal27, tested 0.5, 1, 1.5 μM. The procedure: The colony formation assay was used to evaluate the antiproliferative effect of compound 7be on Cal27 cells. Cal27 cells were grown in 6-well plates at a density of 700 cells per well and then treated with different concentrations of compound 7be for 48 h. The treatment medium was removed and fresh medium was added. After 2 weeks of culture, cells were fixed with 4% paraformaldehyde for 8 min and stained with crystal violet solution (10%). Finally, they were imaged with a camera.

Data set [2] can be described thus: In vivo biological safety evaluation. More on the design: species or system BALB/c nude mice. The procedure: Nude mouse organ and tumor tissues fixed with neutral formalin solution were paraffin-embedded according to the conventional processing method. Sections were cut to a thickness of approximately 5 μm, placed on glass slides and dewaxed in an oven at 60 °C, stained for H&E and immunohistochemistry and finally visualized with the Cytation 5 imaging system.
For this assay, 130 SPF-grade BALB/c mice (female, 4–6 weeks old, 18–20 g) were obtained from Chang Zhou Cavens Laboratory Animal Ltd. (Changzhou, China). The in vivo activity experiments were commissioned by Nanjing OG Pharmaceuticals, Co., Ltd. (Nanjing, China) All mice were housed in plastic cages, fed, and watered under standard conditions and air filtration (22 ± 2 °C; 12 h light/dark cycles). Under aseptic conditions, human oral cancer Cal27 cells were inoculated subcutaneously in the right axilla of BALB/c nude mice. When the tumors had grown to about 85 mm^3, 24 […] mice with good growth status and good homogeneity of tumor size were selected and randomly divided into the following four groups of six mice each: (1) the model group; (2) the low-dose group; (3) the high-dose group; and (4) the positive drug group. The drug dose in the low-dose group was 10 mg/kg, which was injected intraperitoneally once every other day, for the duration of 21 days of administration; the drug dose in the high-dose group was 20 mg/kg, which was injected intraperitoneally once every other day, for the duration of 21 days of administration; and the drug dose in the cisplatin group was 2 mg/kg, which was injected intraperitoneally once every other day, for the duration of 21 days of administration. Normal tissues of the heart, liver, spleen, lung and kidney and half of the tumor tissues were fixed with 4% formalin solution and embedded in paraffin for histological analysis; the other half of the tumor tissues were preserved in liquid nitrogen, and the supernatant was extracted after milling the tissues and detected by Western blot.

Regarding `Cc1cc(C)c2c(n1)S(=O)(=O)c1c-2nc(NCCN2CCCCC2)c2ccccc12` [7be, 7,9-Dimethyl-5-((2-(piperidin-1-yl)ethyl)amino) pyrido[3′,2′:4,5]thieno[3,2-c]isoquinoline 11,11-dioxide], the “concentration needed to significantly downregulate the level of c-MYC protein” value in the data set on c-MYC protein is 2 µM. In addition, in data set [1], the “expression of autophagy biomarkers Beclin-1 and LC3-II” value is on record as “upregulated”; the “expression of p62” value is listed as “decreased”. The same compound had an IC50 in the data set with A549 of 3.32 ± 1.9 µM. Besides, in the data set on Cal27 cells, the “concentration completely suppressing colony formation ability” value came out at 1.5 µM. Further, in data set [2] (10 or 20 mg/kg i.p., 21 days), the “body weight of mice during treatment” value is on record as “no significant decrease in body weight; also recorded: no considerable weight loss”. In data set [2] (end of treatment), the “organ weight of mice” value was “no significant difference”. The “H&E staining of major organs” value in data set [2] (heart, liver, spleen, lung, kidney) is given as “no lesions, degenerations or histopathological abnormalities”.
